Experimental data from patent US6773702B2, “Use of combretastatin A4 and its prodrugs as an immune enhancing therapy” (OXiGENE, Inc., priority 2000, dated 2004).

How the values were obtained:
[1] = system: colon carcinoma H1D2-WT cells; test: Intrahepatic growth of colon carcinoma H1D2-WT, tumor volume after 4 weeks (Table 2); format: in vivo, rat; details: no CA4-P; L-NAME gavage; with immunization
Description: Table 2 is a summary of intrahepatic growth of colon carcinoma H1D2-WT cells treated with low dose CA4P alone or in combination with immunomodulatory gene therapy, and with or without additional inhibitor. Tumor growth was initiated by inoculation beneath the liver capsule with 1×10^5 in vitro cultured BN7005-H1D2 wild type cells suspended in 50 μl RPMI medium. Drug administration (CA4P, L-NAME, Indomethacin) was initiated after 7-8 days when the tumor was macroscopically visible. CA4P was given intraperitoneally, 5 days a week. L-NAME was given by gavage twice a week on the day of immunization and the day after. Indomethacin was given by gavage 48 h after vaccination at a dose of 0.33 mg/kg. Immunization was performed by intraperitoneal administration on day 10 and day 17 using BN7005-H1D2 cells transfected with IL-18 or a mixture of IL-18 and IL-12 transfectants (2-3×10^6 viable cells per rat).
Wild-type (BN7005-H1D2) colon cancer cells (1×10^5 cells) were inoculated intrahepatically and CA4P drug treatment (2 and 5 mg/kg) began daily when the tumors were macroscopically visible. On day 10 and 17, vaccinations were administered intraperitoneally using […] cells transfected with IL-18 transfected cells or mixtures of IL-18 and IL-12 transfected cells (2-3×10^6 viable cells per rat). L-NAME and Indomethacin were also administered by gavage 48 h after vaccination at a dose of 0.33 mg/kg.

[2] = system: BN7005-H1D2 colon cancer cells; test: Tumor growth with IL-18/IFN-γ vaccination plus CA4P and/or L-NAME (FIG. 6); format: in vivo, rat; details: L-NAME by gavage 48 mg/rat + vaccination with IL-18/IFN-γ producing tumor cells
Description: FIG. 6 illustrates enhancement of the therapeutic effect of vaccination with IL-18/IFN-γ producing tumor transfectant […] cells by concurrent treatment with low dose combretastatin-A4 prodrug and/or L-NAME. Mean tumor volume±SEM is indicated. Significance of differences compared to the PBS control was evaluated by the Student's t test.
Four groups of 6 rats each were inoculated intrahepatically with 1×10^5 wild type colon cancer cells (BN7005-H1D2) on day 0. Drug treatment was initiated on day 7, when the tumor was macroscopically visible as a small nodule, and was repeated 5 days a week. CA4-P was administered i.p. at a dose of 5 mg/kg and L-NAME by gavage at a dose of 48 mg/rat. Vaccination was given twice i.p. on day 10.and 17 with 2×10^6 tumor cells producing IL-18 and IFN-γ, respectively. No drug treatment was given on the day of vaccination and the day after. On day 28 all animals were laparotomized and tumor diameters measured (the longest diameter (a) and the one perpendicular to the first (b) and tumor volume calculated according to the formula 0.4×a×b×b.
Referring to FIG. 6, wild-type (BN7005-H1D2) colon cancer cells were inoculated intrahepatically and combretastatin A4 prodrug treatment began daily on day 7 when the tumors were macroscopically visible. L-NAME, a well known NO inhibitor and effective antitumor agent, was also administered daily. On day 10 and 17 vaccination occurred using BN7005-H1D2 cells transfected with IL-18/IFN-gamma. […] One likely explanation was that both L-NAME and Combretastatin A4 were doing the same thing; i.e. inhibiting the production of proinflammatory cytokines that cause immune suppression.

[3] = system: spleen cells of H1D2-WT tumor-bearing rat; test: In vitro proliferative response of spleen cells from a tumor-bearing rat treated with CA4 plus immunotherapy (FIG. 4); format: in vivo; details: for T cell proliferative response: CA4 2 mg/kg + active immunotherapy
Description: FIG. 4 illustrates the enhanced in vitro immune proliferative response (cpm) of spleen cells isolated from (H1D2-WT) a tumor-bearing rat previously treated in vivo with a combination of active immunomodulatory therapy and CA4 (2 mg/kg, 6 days a week). Spleen cells were tested 9 weeks after tumor inoculation when tumor sizes was 0.9 cm^3. LO signifies spleen cells containing adherent macrophages, whereas L1 represents the same population depleted of adherent macrophages. A subset of each cell sample was treated with either medium (Med) or L-NAME (1.5 mg/ml).
While the anti-tumor properties of CA4 and CA4P are very different, the present invention embraces the discovery that a low dose of either compound is capable of enhancing the immune responsiveness of a tumor host. FIG. 4 illustrates the in vitro immune proliferation of spleen cells isolated from a tumor-bearing rat previously subjected to treatment with a combination of CA4 (2 mg/kg) and active immunotherapy. The rat was killed 9 weeks after initiation of intrahepatic tumor growth, at which point the tumor had grown to a size of 0.9 cm^3. Control rats receiving immunotherapy alone were euthanized 5 weeks earlier due to the development of large tumor burdens (>5 cm3).
A tumor-bearing rat (H1D1-WT) was treated in vivo with weekly immunizations of IL-18 transfected tumor cells (H1D1-IL-18), in addition to CA4 treatment (2 mg/kg) 6 days a week. Due to the inherent insolubility of CA4, […] (0.9 cm^3 tumor) following […] of growth, at which point the untreated control rats were all dead with large tumor burdens (>5 cm^3) and would not be expected to show an immune response at such a late stage. Both unseparated spleen cells (L0) and nonadherent spleen cells (L1), depleted of most macrophages by plastic adherence (as in Example 2), were tested for a proliferative response to H1D2-IL18 tumor stimulator cells in the absence or presence of the NO-synthase inhibitor L-NAME.

[4] = system: BN7005-H1D2 colon cancer cells; test: Comparison of CA4 and CA4P on BN7005-H1D2 tumor growth, alone or with vaccination (FIG. 5); format: in vivo, rat
Description: FIGS. 5A AND 5B illustrate a comparison of the therapeutic effect of Combretastatin A4 and Combretastatin A4 Prodrug (2 mg/kg) on tumor growth (BN7005-H1D2) in vivo as a sole therapy or in combination with therapeutic vaccination (IL-18 tumor transfectants). Results are represented as mean tumor volume (FIG. 5A) or as median tumor volume (FIG. 5B) 31 days after tumor initiation.
A comparison was also made of relative effect of CA4 and CA4P administration in vivo with regard to tumor inhibitory effects when used as sole therapy and when combined with immunomodulatory gene therapy. […] A subset of these animals were subjected to regular vaccinations autologous IL-18 and IL-12-transfected tumor cells, respectively.
A comparison has been made of the effect of CA4 and CA4 prodrug with regard to tumor inhibitory effects when used as sole therapy and when combined with immunomodulatory gene therapy. As represented in FIG. 5, wild-type (BN7005-H1D2) colon cancer cells were inoculated intrahepatically and treatment with CA4 and CA4P began on day 7 (2 mg/kg 6 days a week), when the tumors were macroscopically visible. On day 9, 16 and 23, vaccinations occurred using BN7005-H1D2 cells transfected with ILI8 and IL-12, respectively.

[5] = cited from earlier work

SMILES	Tumor volume after 4 weeks, Mean [1]	Tumor volume after 4 weeks, Median [1]	Enhancement of immune stimulated gene therapy [2]	Tumor size ([3]; 9 weeks after initiation of intrahepatic tumor growth, CA4 2 mg/kg + active immunotherapy (controls >5 cm3))	T cell proliferative response ([3]; non-adherent T cells (L1), 9 weeks)	T cell proliferative response ([3]; unseparated spleen cells (L0) in the presence of L-NAME in vitro)	T cell proliferative response ([3]; unseparated spleen cells (L0), 9 weeks after tumor initiation)	Tumor inhibitory effect ([4]; 2 mg/kg 6 days a week as sole therapy)	Tumor inhibitory effect ([4]; 2 mg/kg combined with vaccination (IL-18 and IL-12 transfected tumor cells))	Solubility in water [5]
COC(=O)[C@@H](N)CCCNC(=N)N[N+](=O)[O-] [L-NAME, reference compound]	1285 mm^3	879 mm^3	effective enhancers of immune stimulated gene therapy							
COc1ccc(/C=C\c2cc(OC)c(OC)c(OC)c2)cc1O [CA4, Combretastatin A4]				0.9 cm^3	86,000 cpm	44,000 cpm	9000 cpm	no significant effect as sole therapy	significant tumor inhibitory effects	very limited
